Key:
HepG2 hepatocytes = test: Palmitic acid-treated HepG2 hepatocytes (non-alcoholic fatty liver model), triglyceride and cholesterol by kit; assay type: cell-based; details: PA-treated HepG2, 24 h, DNJ 20 μg/ml
Protocol: HepG2 hepatocytes were cultured overnight in a 6-well plate at a seeding density of 2×10^5 cells/ml after digestion. HepG2 cells were treated with palmitic acid (PA) to create a non-alcoholic fatty liver model, with 0.25% BSA treatment as a control. Cells in the model groups were separately administrated with extracts from Morus alba L. (designed to be 25 μg/ml (containing 17 μg/ml DNJ) based on total alkaloids (SZ-A)) obtained from Example 1, 20 μg/ml DNJ, 5 μg/ml FAG, or 5 μg/ml DAB, and cultured for 24 h. Cells were lysed with the lysis solution containing Triton x-100 after removal of the supernatant, and the triglyceride (TG) and cholesterol (TC) in hepatocytes were detected using a kit.

3T3-L1 adipocytes = test: Secretion of adiponectin in 3T3-L1 adipocytes (ELISA of supernatant); assay type: cell-based; details: DNJ 80, 40, 20 μg/ml; summary statement
Protocol: Reduced adiponectin levels were independent risk factors for NAFLD and liver dysfunction. Adiponectin might activate liver AMPK, inhibit lipid synthesis, and promote lipid oxidation. Adiponectin might also affect inflammation of hepatic macrophages and fibrosis of hepatic stellate cells. 3T3-L1 pre-adipocytes were cultured in the medium containing calf serum and seeded into a 6-well plate at a density of 2×10^4 cells/ml. […] The supernatant was collected after culture for 8 days, and the concentration of adiponectin in the supernatant was detected using an ELISA kit.

triglyceride (TG) level in hepatocytes (HepG2 hepatocytes; SZ-A 25 μg/ml (based on total alkaloids)): reduce the triglyceride level
cholesterol (TC) level in hepatocytes (HepG2 hepatocytes; SZ-A 25 μg/ml): reduced the cholesterol level
Compound: OC[C@H]1NC[C@H](O)[C@@H](O)[C@@H]1O [DNJ, 1-deoxynojirimycin]
concentration of adiponectin (3T3-L1 adipocytes): increase the concentration of adiponectin
